Results: patent US6087355A, “Cephalosporin antibiotics” (Microcide Pharmaceuticals, Inc., priority 1996, dated 2000)
Values after ≈ are worked out from the molar mass of the structure shown. Counter-ions that a name gives are not always drawn.

Assays:
[1] = test system: S. aureus Col8A(Meth^S)(lac^-); assay: In vitro MIC, agar dilution; assay type: cell-based; conditions: for MIC: Staphylococcus aureus, S. aureus Col8A(Meth^S)(lac^-), read-out: minimum inhibitory concentration (MIC)
In short: (§1)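 Two-fold dilutions (128 to ≤0.25 μg/mL, in duplicate) were poured into Mueller-Hinton agar. Log-phase broth cultures were spot-inoculated at about 10^4 cfu per spot and incubated 35-36°C for 16-20 hours; the MIC was the lowest concentration inhibiting growth. Col is a high-level PBP2a producer; Col 8A is its isogenic PBP2a-lacking partner.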

[2] = test system: S. aureus Spain #356(Meth^R); assay: In vitro MIC, agar dilution; assay type: cell-based; conditions: Staphylococcus aureus, read-out: minimum inhibitory concentration (MIC)
In short: (§2)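 Growth inhibition was scored after 16-20 h at 35-36 °C on Mueller-Hinton agar carrying serial two-fold drug concentrations (128 to ≤0.25 μg/mL). Inocula of ~10^4 cfu per spot came from 4-6 h broth cultures.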

[3] = test system: S. aureus ATCC 29213; assay: In vitro MIC, agar dilution; assay type: cell-based; conditions: Staphylococcus aureus, ATCC29213, read-out: minimum inhibitory concentration (MIC)
In short: as §2

[4] = test system: E. faecium A491(Amp^R); assay: In vitro MIC, agar dilution; assay type: cell-based; conditions: Enterococcus faecium, read-out: minimum inhibitory concentration (MIC)
In short: as §2

[5] = test system: P. aeruginosa ATCC 27853; assay: In vitro MIC, agar dilution; assay type: cell-based; conditions: Pseudomonas aeruginosa, ATCC27853, read-out: minimum inhibitory concentration (MIC)
In short: as §2

[6] = test system: S. aureus ATCC 33593(Meth^R); assay: In vitro MIC, agar dilution; assay type: cell-based; conditions: Staphylococcus aureus, ATCC33593, read-out: minimum inhibitory concentration (MIC)
In short: as §2

[7] = test system: E. faecium VanA(Van^R); assay: In vitro MIC, agar dilution; assay type: cell-based; conditions: Enterococcus faecium, read-out: minimum inhibitory concentration (MIC)
In short: as §2

[8] = test system: S. haemolyticus 05(Meth^R); assay: In vitro MIC, agar dilution; assay type: cell-based; conditions: Staphylococcus haemolyticus, read-out: minimum inhibitory concentration (MIC)
In short: as §2

[9] = test system: E. faecalis ATCC 29212; assay: In vitro MIC, agar dilution; assay type: cell-based; conditions: Enterococcus faecalis, ATCC29212, read-out: minimum inhibitory concentration (MIC)
In short: as §2

[10] = test system: S. aureus PC1(Meth^S)(lac^+); assay: In vitro MIC, agar dilution; assay type: cell-based; conditions: Staphylococcus aureus, read-out: minimum inhibitory concentration (MIC)
In short: as §2

[11] = test system: S. aureus ATCC 13709(Meth^S); assay: In vitro MIC, agar dilution; assay type: cell-based; conditions: Staphylococcus aureus, ATCC13709, S. aureus ATCC 13709(Meth^S); read-out: minimum inhibitory concentration (MIC)
In short: as §2

[12] = test system: E. coli ATCC 25992; assay: In vitro MIC, agar dilution; assay type: cell-based; conditions: Escherichia coli, ATCC25992, read-out: minimum inhibitory concentration (MIC)
In short: as §2

[13] = test system: S. aureus 76(Meth^R)(lac^+); assay: In vitro MIC, agar dilution; assay type: cell-based; conditions: Staphylococcus aureus, read-out: minimum inhibitory concentration (MIC)
In short: as §2

[14] = test system: E. faecium ATCC 35667; assay: In vitro MIC, agar dilution; assay type: cell-based; conditions: Enterococcus faecium, ATCC35667, read-out: minimum inhibitory concentration (MIC)
In short: as §2

[15] = test system: E. faecalis VanB(Van^R); assay: In vitro MIC, agar dilution; assay type: cell-based; conditions: Enterococcus faecalis, read-out: minimum inhibitory concentration (MIC)
In short: as §2

[16] = test system: S. aureus strain ATCC 13709 (methicillin-susceptible); assay: Murine model for lethal bacteremic peritonitis; assay type: in vivo, female Swiss-Webster mice; conditions: Staphylococcus aureus, ATCC13709, SC, 72 h; for responders at 0.3125 mg/kg / responders at 0.625 mg/kg / responders at 2.5 mg/kg / responders at 5 mg/kg: read-out: Survivors; for responders at 1.25 mg/kg: read-out: Survivors (converted); for ED50: two equal doses, IP challenge, read-out: ED50
In short: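 Female Swiss-Webster mice were challenged IP with an LD100 inoculum in 7% hog gastric mucin, then given test drug subcutaneously in twofold increments (0.01–512 mg/kg) as two equal doses at challenge and 2 h later, 10 mice per group. Survival was scored at 72 h; PD50 (total mg/kg) was derived by probit.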

[17] = test system: S. aureus Col(Meth^R)(lac^-); assay: In vitro MIC, agar dilution; assay type: cell-based; conditions: Staphylococcus aureus, read-out: minimum inhibitory concentration (MIC)
In short: as §1

CO/N=C(\C(=O)N[C@@H]1C(=O)N2C(C(=O)O)=C(COC(C)=O)CS[C@H]12)c1csc(N)n1 [Cefotaxime, cefotaxime, reference compound]
responsiveness of S. aureus Col 8A strain ([1]; in words): highly responsive

NCCSCc1cnccc1SC1=C(C(=O)O)N2C(=O)[C@@H](NC(=O)/C(=N\OCCF)c3nc(N)sc3Cl)[C@H]2SC1.O=C(O)C(F)(F)F [Cmpd 33, (7R)-7-[(Z)-2-(2-amino-5-chlorothiazol-4-yl)-2-(2-fluoroethoxyimino)acetamido]-3-(3-aminoethylthiomethylpyrid-4-ylthio)-3-cephem-4-carboxylate, trifluoroacetic acid salt]
MIC [2]: 1 µg/mL | MIC [3]: 0.25 µg/mL | MIC [4]: 8 µg/mL | MIC [5]: 32 µg/mL | MIC [6]: 2 µg/mL | MIC [7]: 2 µg/mL | MIC [8]: 2 µg/mL | MIC [9]: 0.13 µg/mL | MIC [10]: 0.25 µg/mL | MIC [11]: 0.13 µg/mL | MIC [12]: 1 µg/mL | MIC [13]: 1 µg/mL | MIC [14]: 0.5 µg/mL | MIC [15]: 0.13 µg/mL | responders at 0.3125 mg/kg [16]: 0% | responders at 0.625 mg/kg [16]: 40% | responders at 1.25 mg/kg [16]: 50% | responders at 2.5 mg/kg [16]: 90% | responders at 5 mg/kg [16]: 80% | ED50 [16]: 1.19 mg/kg | MIC [17]: 1 µg/mL

NC(=O)CSCc1cnccc1SC1=C(C(=O)O)N2C(=O)[C@@H](NC(=O)/C(=N\O)c3nc(N)sc3Cl)[C@H]2SC1 [Cmpd 39, (7R)-7-[(Z)-2-(2-amino-5-chlorothiazol-4-yl)-2-(hydroxyimino)acetamido]-3-(3-carboxamidomethylthiomethylpyrid-4-ylthio)-3-cephem-4-carboxylic acid]
MIC [2]: 4 µg/mL (≈ 6.49 µM) | MIC [3]: 0.25 µg/mL (≈ 0.406 µM) | MIC [4]: 32 µg/mL (≈ 51.9 µM) | MIC [5]: > 32 µg/mL | MIC [6]: 4 µg/mL (≈ 6.49 µM) | MIC [7]: 2 µg/mL (≈ 3.25 µM) | MIC [8]: 8 µg/mL (≈ 13 µM) | MIC [9]: 0.25 µg/mL (≈ 0.406 µM) | MIC [10]: 0.5 µg/mL (≈ 0.812 µM) | MIC [11]: 0.25 µg/mL (≈ 0.406 µM) | MIC [12]: 8 µg/mL (≈ 13 µM) | MIC [13]: 4 µg/mL (≈ 6.49 µM) | MIC [14]: 1 µg/mL (≈ 1.62 µM) | MIC [15]: 0.25 µg/mL (≈ 0.406 µM) | responders at 0.3125 mg/kg [16]: 10% | responders at 0.625 mg/kg [16]: 30% | responders at 1.25 mg/kg [16]: 60% | responders at 2.5 mg/kg [16]: 60% | responders at 5 mg/kg [16]: 100% | ED50 [16]: 1.15 mg/kg | MIC [17]: 2 µg/mL (≈ 3.25 µM)

NCCCCCOCc1cnccc1SC1=C(C(=O)O)N2C(=O)[C@@H](NC(=O)/C(=N\O)c3nc(N)sc3Cl)[C@H]2SC1 [Cmpd 44, (7R)-7-[(Z)-2-(2-amino-5-chlorothiazol-4-yl)-2-(hydroxyimino)acetamido]-3-(3-(5-aminopentyloxymethyl)pyrid-4-ylthio)-3-cephem-4-carboxylate, trifluoroacetic acid salt]
MIC [2]: 4 µg/mL | MIC [3]: 0.5 µg/mL | MIC [4]: 16 µg/mL | MIC [5]: > 32 µg/mL | MIC [6]: 4 µg/mL | MIC [7]: 2 µg/mL | MIC [8]: 8 µg/mL | MIC [9]: 0.13 µg/mL | MIC [10]: 2 µg/mL | MIC [11]: 2 µg/mL | MIC [12]: 8 µg/mL | MIC [13]: 4 µg/mL | MIC [14]: 4 µg/mL | MIC [1]: 0.5 µg/mL | MIC [17]: 4 µg/mL

NCCS(=O)(=O)Cc1cnccc1SC1=C(C(=O)O)N2C(=O)[C@@H](NC(=O)/C(=N\O)c3nc(N)sc3Cl)[C@H]2SC1 [Cmpd 45, (7R)-7-[(Z)-2-(2-amino-5-chlorothiazol-4-yl)-2-(hydroxyimino)acetamido]-3-(3-aminoethylsulfonylmethylpyrid-4-ylthio)-3-cephem-4-carboxylate, trifluoroacetic acid salt]
MIC [2]: 4 µg/mL | MIC [3]: 1 µg/mL | MIC [4]: 16 µg/mL | MIC [5]: > 32 µg/mL | MIC [6]: 4 µg/mL | MIC [7]: 4 µg/mL | MIC [8]: 8 µg/mL | MIC [9]: 0.13 µg/mL | MIC [10]: 2 µg/mL | MIC [11]: 2 µg/mL | MIC [12]: 16 µg/mL | MIC [13]: 4 µg/mL | MIC [14]: 2 µg/mL | MIC [1]: 1 µg/mL | MIC [17]: 4 µg/mL

NCCCCOCc1cnccc1SC1=C(C(=O)O)N2C(=O)[C@@H](NC(=O)/C(=N\O)c3nc(N)sc3Cl)[C@H]2SC1 [Cmpd 46, (7R)-7-[(Z)-2-(2-amino-5-chlorothiazol-4-yl)-2-(hydroxyimino)acetamido]-3-(3-(4-aminobutyloxymethyl)pyrid-4-ylthio)-3-cephem-4-carboxylate, trifluoroacetic acid salt]
MIC [2]: 4 µg/mL | MIC [3]: 1 µg/mL | MIC [4]: 16 µg/mL | MIC [5]: > 32 µg/mL | MIC [6]: 2 µg/mL | MIC [7]: 2 µg/mL | MIC [8]: 8 µg/mL | MIC [9]: 0.13 µg/mL | MIC [10]: 2 µg/mL | MIC [11]: 2 µg/mL | MIC [12]: 8 µg/mL | MIC [13]: 4 µg/mL | MIC [14]: 2 µg/mL | MIC [1]: 0.5 µg/mL | MIC [17]: 2 µg/mL

NCCCOCc1cnccc1SC1=C(C(=O)O)N2C(=O)[C@@H](NC(=O)/C(=N\O)c3nc(N)sc3Cl)[C@H]2SC1 [Cmpd 47, (7R)-7-[(Z)-2-(2-amino-5-chlorothiazol-4-yl)-2-(hydroxyimino)acetamido]-3-(3-(3-aminopropyloxymethyl)pyrid-4-ylthio)-3-cephem-4-carboxylate, trifluoroacetic acid salt]
MIC [2]: 2 µg/mL | MIC [3]: 1 µg/mL | MIC [4]: 16 µg/mL | MIC [5]: > 32 µg/mL | MIC [6]: 2 µg/mL | MIC [7]: 2 µg/mL | MIC [8]: 4 µg/mL | MIC [9]: 0.13 µg/mL | MIC [10]: 2 µg/mL | MIC [11]: 2 µg/mL | MIC [12]: 8 µg/mL | MIC [13]: 2 µg/mL | MIC [14]: 2 µg/mL | MIC [1]: 0.5 µg/mL | MIC [17]: 2 µg/mL

Nc1nc(/C(=N/O)C(=O)N[C@@H]2C(=O)N3C(C(=O)O)=C(Sc4ccncc4CSCC(N)CO)CS[C@H]23)c(Cl)s1 (stereo partly drawn) [Cmpd 56, (7R)-7-[(Z)-2-(2-amino-5-chlorothiazol-4-yl)-2-(hydroxyimino)acetamido]-3-[3-(2RS-2-amino-3-hydroxyprop-1-ylthiomethyl)pyrid-4-ylthio]-3-cephem-4-carboxylate, trifluoroacetic acid salt]
MIC [2]: 2 µg/mL | MIC [3]: 0.5 µg/mL | MIC [4]: 8 µg/mL | MIC [5]: > 32 µg/mL | MIC [6]: 2 µg/mL | MIC [7]: 1 µg/mL | MIC [8]: 4 µg/mL | MIC [9]: 0.13 µg/mL | MIC [10]: 0.5 µg/mL | MIC [11]: 0.25 µg/mL | MIC [12]: 8 µg/mL | MIC [13]: 2 µg/mL | MIC [14]: 1 µg/mL | MIC [15]: 2 µg/mL | responders at 0.3125 mg/kg [16]: 20% | responders at 0.625 mg/kg [16]: 30% | responders at 1.25 mg/kg [16]: 30% | responders at 2.5 mg/kg [16]: 80% | responders at 5 mg/kg [16]: 80% | ED50 [16]: 1.23 mg/kg | MIC [17]: 2 µg/mL

CNCCNCCSCc1cnccc1SC1=C(C(=O)O)N2C(=O)[C@@H](NC(=O)/C(=N\O)c3nc(N)sc3Cl)[C@H]2SC1 [Cmpd 57, (7R)-7-[(Z)-2-(2-amino-5-chlorothiazol-4-yl)-2-(hydroxyimino)acetamido]-3-(3-(N-methylaminoethylaminoethylthiomethyl)pyrid-4-ylthio)-3-cephem-4-carboxylate, trifluoroacetic acid salt]
MIC [2]: 4 µg/mL | MIC [3]: 1 µg/mL | MIC [4]: 16 µg/mL | MIC [5]: > 32 µg/mL | MIC [6]: 4 µg/mL | MIC [7]: 2 µg/mL | MIC [8]: 8 µg/mL | MIC [9]: 0.13 µg/mL | MIC [10]: 1 µg/mL | MIC [11]: 0.5 µg/mL | MIC [12]: 4 µg/mL | MIC [13]: 4 µg/mL | MIC [14]: 1 µg/mL | MIC [15]: 4 µg/mL | responders at 0.3125 mg/kg [16]: 40% | responders at 0.625 mg/kg [16]: 40% | responders at 1.25 mg/kg [16]: 40% | responders at 2.5 mg/kg [16]: 50% | responders at 5 mg/kg [16]: 90% | ED50 [16]: 1.08 mg/kg | MIC [17]: 4 µg/mL
